Results as given in patent publication US7781470B2, “Aminodicarboxylic acid derivatives having pharmaceutical properties” (Bayer Schering Pharma Aktiengesellschaft, priority 1999, dated 2010).
pIC50: −log10 of the molar value. Structures can show the parent of a compound that is named as a salt. One block for each compound: values may come before it.

Key:
[1] = system: arteria saphena rings; assay: Vasal relaxant action in vitro (phenylephrin-contracted artery rings); format: cell-based, Rabbits; conditions: Oryctolagus cuniculus; concentration reducing phenylephrin-induced contraction by 50%; rabbit arteria saphena rings; read-out: IC50 vasorelaxant action in vitro
Method: Rabbits are anaesthetized by intravenous injection of thiopental sodium […] (about 50 mg/kg) and exsanguinated. The arteria saphena is removed and divided into 3 mm wide rings. The rings are individually mounted on in each case one triangular pair of hooks, open at the end, made of 0.3 mm strong special wire (Remanium®). Under a pretension, each ring is transferred into 5 ml organ baths containing a warm, carbogen-aerated Krebs-Henseleit solution at 37° C. having the following composition (mM): NaCl: 119; KCl: 4.8; CaCl2×2H2O: 1; MgSO4×7 H2O: 1.4; KH2PO4: 1.2; NaHCO3: 25; glucose: 10; bovine serum albumin: 0.001%. The contractility is detected using Statham UC2 cells, amplified and digitalized by means of A/D converters (DAS-1802 HC, Keithley Instruments Munich), and recorded in parallel on linear recorders. Contractions are induced by addition of phenylephrin.
After several (in general 4) control cycles, the substance to be investigated is added in each further passage in increasing dosage, and the height of the contraction achieved under the influence of the test substance is compared with the height of the contraction achieved in the last preliminary passage. From this, the concentration which is necessary in order to reduce the contraction achieved in the preliminary control by 50% ((IC50) is calculated. The standard administration volume is 5 μl. The proportion of DMSO in the bath solution corresponds to 0.1%.

[2] = biological target: T1, Haem-containing sGC (recombinant soluble guanylate cyclase) (Rattus norvegicus, UniProt P20595); assay: Stimulation of recombinant soluble guanylate cyclase (sGC) in vitro, haem-containing enzyme; format: biochemical
T1 construct: made in house
T1 sequence (P20595 1-619): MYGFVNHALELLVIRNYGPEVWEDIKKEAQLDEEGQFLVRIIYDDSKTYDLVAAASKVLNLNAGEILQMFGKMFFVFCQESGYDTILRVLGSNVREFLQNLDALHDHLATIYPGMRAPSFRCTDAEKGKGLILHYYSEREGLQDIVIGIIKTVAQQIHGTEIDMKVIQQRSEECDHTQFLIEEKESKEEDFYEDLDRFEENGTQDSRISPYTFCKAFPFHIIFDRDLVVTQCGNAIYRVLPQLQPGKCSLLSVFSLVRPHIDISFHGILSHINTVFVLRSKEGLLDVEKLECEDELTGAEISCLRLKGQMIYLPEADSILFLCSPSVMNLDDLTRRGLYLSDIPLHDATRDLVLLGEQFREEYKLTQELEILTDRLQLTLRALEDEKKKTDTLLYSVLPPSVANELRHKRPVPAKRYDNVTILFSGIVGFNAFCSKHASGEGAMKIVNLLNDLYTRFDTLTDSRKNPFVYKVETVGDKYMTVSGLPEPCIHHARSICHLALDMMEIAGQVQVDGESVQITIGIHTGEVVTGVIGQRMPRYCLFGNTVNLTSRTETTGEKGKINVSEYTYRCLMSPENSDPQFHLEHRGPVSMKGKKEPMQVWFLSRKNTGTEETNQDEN
T1 sequence (P19686 1-690 partner): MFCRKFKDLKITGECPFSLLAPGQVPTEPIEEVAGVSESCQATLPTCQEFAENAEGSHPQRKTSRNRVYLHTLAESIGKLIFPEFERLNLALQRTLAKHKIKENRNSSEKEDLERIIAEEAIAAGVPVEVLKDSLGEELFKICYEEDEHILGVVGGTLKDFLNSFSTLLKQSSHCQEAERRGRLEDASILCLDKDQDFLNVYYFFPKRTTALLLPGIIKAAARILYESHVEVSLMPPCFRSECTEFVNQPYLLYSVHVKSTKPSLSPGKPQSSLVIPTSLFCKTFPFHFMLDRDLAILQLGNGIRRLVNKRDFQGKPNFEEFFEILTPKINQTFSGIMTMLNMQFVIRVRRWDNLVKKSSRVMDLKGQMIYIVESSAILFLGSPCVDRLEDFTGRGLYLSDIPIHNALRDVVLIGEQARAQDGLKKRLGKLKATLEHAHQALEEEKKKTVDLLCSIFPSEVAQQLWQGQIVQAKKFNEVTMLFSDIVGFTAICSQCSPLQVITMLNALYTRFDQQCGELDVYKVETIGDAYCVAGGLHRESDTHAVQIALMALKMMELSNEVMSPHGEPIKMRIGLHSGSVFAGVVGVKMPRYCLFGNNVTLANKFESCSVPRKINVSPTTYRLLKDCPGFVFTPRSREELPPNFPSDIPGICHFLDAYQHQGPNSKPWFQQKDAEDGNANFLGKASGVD
Method: (§1) The investigations on the stimulation of recombinant soluble guanylate cyclase (sGC) and the compounds according to the invention with and without sodium nitroprusside and with and without the haem-dependent sGC inhibitor 1H-1,2,4-oxadiazole-(4,3a)-quinoxalin-1-one (ODQ) were carried out by the method described in detail in the following literature reference: M. Hoenicka, E. M. Becker, H. Apeler, T. Sirichoke, H. Schroeder, R. Gerzer and J.-P. Stasch: Purified soluble guanylyl cyclase expressed in a baculovirus/Sf9 system: stimulation by YC-1, nitric oxide, and […]. J. Mol. Med. 77 (1999): 14-23.
(§2) Activation of sGC by a test substance is stated as n-fold stimulation of basal activity.

[3] = biological target: T2, Haem-free sGC (recombinant soluble guanylate cyclase) (Rattus norvegicus, UniProt P20595); assay: Stimulation of recombinant soluble guanylate cyclase (sGC) in vitro, haem-free enzyme; format: biochemical; conditions: for Stimulation (n-fold), haem-free sGC, basal: Tween 20 0.5%
T2 construct: made in house
T2 sequence (P20595 1-619): T1 sequence (P20595 1-619)
T2 sequence (P19686 1-690 partner): T1 sequence (P19686 1-690 partner)
Method: as §1
Haem-free guanylate cyclase was obtained by adding Tween 20 to the sample buffer (final concentration 0.5%).
as §2

[4] = 0.1 μM test compound + ODQ 10 μM
[5] = 1.0 μM test compound + ODQ 10 μM
[6] = 10 μM test compound + ODQ 10 μM
[7] = ODQ 10 μM, Ex. 87 concentration 0

Compound: O=C(O)CCCCN(CCc1ccccc1OCc1ccc(CCc2ccccc2)cc1)Cc1ccc(C(=O)O)cc1 [Example 8, 4-[((4-Carboxybutyl)-{2-[(4-phenethylbenzyl)oxy]phenethyl}amino)-methyl]benzoic Acid Hydrochloride]
pIC50 [1]: 9.40

Compound: O=C(O)CCCCN(CCc1ccccc1OCc1ccc(Oc2ccc(Cl)cc2)cc1)Cc1ccc(C(=O)O)cc1 [Example 28]
pIC50 [1]: 8.55

Compound: O=C(O)CCCCN(CCc1ccccc1OCc1ccc(OCc2ccccc2)cc1)Cc1ccc(C(=O)O)cc1 [Example 32]
pIC50 [1]: 8.19

Compound: O=C(O)CCCCN(CCc1ccccc1OCc1ccc(/C=C/c2ccccc2)cc1)Cc1ccc(C(=O)O)cc1 [Example 33]
pIC50 [1]: 9.30

Compound: C#CCOc1ccccc1CCN(CCCCC(=O)O)Cc1ccc(C(=O)O)cc1 [Example 37]
pIC50 [1]: 6.08

Compound: O=C(O)CCCCN(CCc1ccccc1OCc1ccc(C2CCCCC2)cc1)Cc1ccc(C(=O)O)cc1 [Example 70]
pIC50 [1]: 9.70

Compound: O=C(O)CCCCN(CCc1ccccc1OCc1ccc(-c2csc(C(F)(F)F)n2)cc1)Cc1ccc(C(=O)O)cc1 [Example 72]
pIC50 [1]: 7.54

Compound: O=C(O)CCCCN(CCc1ccccc1OCc1ccc2c(c1)CCCC2)Cc1ccc(C(=O)O)cc1 [Example 76]
pIC50 [1]: 7.54

Compound: COc1ccc(-c2ccc(COc3ccccc3CCN(CCCCC(=O)O)Cc3ccc(C(=O)O)cc3)cc2)cc1 [Example 88]
pIC50 [1]: 9.40

Compound: CCCCCCCCOc1ccccc1CCN(CCOc1ccc(C(=O)O)cc1)Cc1ccc(C(=O)O)cc1 [Example 103]
pIC50 [1]: 8.41

The remaining lines, values ahead:

pIC50 [1]: 7.77
Compound: CC(C)(C)c1ccc(COc2ccccc2CCN(CCCCC(=O)O)Cc2ccc(C(=O)O)cc2)cc1 [Example 30]

pIC50 [1]: 7.14
Compound: O=C(O)CCCCCN(CCc1ccccc1OCc1ccc(-c2ccccc2)cc1)Cc1ccc(C(=O)O)cc1 [Example 56]

pIC50 [1]: 9.40
Compound: O=C(O)CCCCN(CCc1ccccc1OCc1ccc(Oc2ccc(C(F)(F)F)cc2)cc1)Cc1ccc(C(=O)O)cc1 [Example 86]

Stimulation (n-fold), haem-containing sGC, +ODQ (10 μM) [2, 4]: 132 n-fold
Stimulation (n-fold), haem-containing sGC, +SNP (0.1 μM) ([2]; 0.1 μM test compound + SNP 0.1 μM): 41 n-fold
Stimulation (n-fold), haem-containing sGC, basal ([2]; 0.1 μM test compound, n-fold stimulation of basal activity): 15 n-fold
Stimulation (n-fold), haem-containing sGC, basal ([2]; 1.0 μM test compound): 18 n-fold
Stimulation (n-fold), haem-containing sGC, +ODQ (10 μM) [2, 5]: 115 n-fold
Stimulation (n-fold), haem-containing sGC, +SNP (0.1 μM) ([2]; 1.0 μM test compound + SNP 0.1 μM): 47 n-fold
Stimulation (n-fold), haem-containing sGC, basal ([2]; 10 μM test compound): 24 n-fold
Stimulation (n-fold), haem-containing sGC, +ODQ (10 μM) [2, 6]: 181 n-fold
Stimulation (n-fold), haem-containing sGC, +SNP (0.1 μM) ([2]; 10 μM test compound + SNP 0.1 μM): 60 n-fold
pIC50 [1]: 9.30
Stimulation (n-fold), haem-free sGC, +ODQ (10 μM) [3, 4]: 361 n-fold
Stimulation (n-fold), haem-free sGC, basal ([3]; 0.1 μM test compound): 353 n-fold
Stimulation (n-fold), haem-free sGC, +ODQ (10 μM) [3, 5]: 457 n-fold
Stimulation (n-fold), haem-free sGC, basal ([3]; 1.0 μM test compound): 491 n-fold
Stimulation (n-fold), haem-free sGC, +ODQ (10 μM) [3, 6]: 477 n-fold
Stimulation (n-fold), haem-free sGC, basal ([3]; 10 μM test compound): 529 n-fold
Compound: O=C(O)CCCCN(CCc1ccccc1OCc1ccc(-c2ccc(Cl)cc2)cc1)Cc1ccc(C(=O)O)cc1 [Example 87]

pIC50 [1]: 8.47
Compound: O=C(O)c1ccc(CN(CCOc2ccc(C(=O)O)cc2)CCc2ccccc2OCCCCCc2ccccc2)cc1 [Example 98]

pIC50 [1]: 9.70
Compound: O=C(O)c1ccc(CN(CCOc2ccc(C(=O)O)cc2)CCc2ccccc2OCc2ccc(C3CCCCC3)cc2)cc1 [Example 102]

Stimulation (n-fold), haem-containing sGC, ODQ alone [2, 7]: 1 n-fold
Stimulation (n-fold), haem-free sGC, ODQ alone [3, 7]: 1 n-fold
Compound: O=c1onc2cnc3ccccc3n12 [ODQ, 1H-1,2,4-oxadiazol-(4,3a)-quinoxalin-1-one, reference compound]
